Measured values reported in PubChem BioAssay AID328 (DTP/NCI, 2004).
Where “and” joins values, the source holds several entries; their conditions need not be identical. Equal values may be shown once. Toxic doses and inconclusive results are not listed.

System: BDF1 mice, P388 leukemia ip, median survival T/C
Assay: NCI In Vivo Anticancer Drug Screen. Data for tumor model P388 Leukemia (intraperitoneal) in B6D2F1 (BDF1) mice
Conditions: endpoint: median survival time, higher = longer survival
Procedure, shortened: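 Transplantable tumour in mice; compound vs vehicle dosing; survival scored; ratio of treated to control reported.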

[1] = dose: 25.0 mg/kg/injection, schedule: Q04DX003 (ip), vehicle: saline with Tween-80
[2] = dose: 100.0 mg/kg/injection, schedule: Q04DX003 (ip), vehicle: saline with Tween-80
[3] = dose: 200.0 mg/kg/injection, schedule: Q04DX003 (ip), vehicle: saline
[4] = dose: 25.0 mg/kg/injection, schedule: Q01DX009 (ip), vehicle: saline with Tween-80
[5] = dose: 50.0 mg/kg/injection, schedule: Q01DX009 (ip), vehicle: saline with Tween-80
[6] = dose: 100.0 mg/kg/injection, schedule: Q01DX001 (ip), vehicle: saline sonified
[7] = dose: 200.0 mg/kg/injection, schedule: Q01DX001 (ip), vehicle: saline sonified
[8] = dose: 400.0 mg/kg/injection, schedule: Q01DX001 (ip), vehicle: saline sonified
[9] = dose: 100.0 mg/kg/injection, schedule: Q01DX009 (ip), vehicle: saline with Tween-80
[10] = dose: 200.0 mg/kg/injection, schedule: Q01DX009 (ip), vehicle: saline with Tween-80
[11] = dose: 50.0 mg/kg/injection, schedule: Q01DX009 (ip), vehicle: saline
[12] = dose: 200.0 mg/kg/injection, schedule: Q01DX009 (ip), vehicle: saline
[13] = dose: 100.0 mg/kg/injection, schedule: Q04DX003 (ip), vehicle: saline
[14] = dose: 50.0 mg/kg/injection, schedule: Q04DX003 (ip), vehicle: saline
[15] = dose: 100.0 mg/kg/injection, schedule: Q01DX009 (ip), vehicle: saline

With CC1CCCC(NC(=O)N(CCCl)N=O)C1 (stereo unspecified) the T/C (dose: 0.25 mg/kg/injection, schedule: Q04DX003 (ip), vehicle: saline with Tween-80) was 115 % of control, the T/C (dose: 0.5 mg/kg/injection, schedule: Q04DX003 (ip), vehicle: saline with Tween-80) was 100 % of control and the T/C (dose: 1.0 mg/kg/injection, schedule: Q04DX003 (ip), vehicle: saline with Tween-80) was 95 % of control. For the same compound, the T/C (dose: 16.5 mg/kg/injection, schedule: Q04DX003 (ip), vehicle: saline with Tween-80) was 240 % of control, the T/C [1] was 259 % of control and the T/C (dose: 37.5 mg/kg/injection, schedule: Q04DX003 (ip), vehicle: saline with Tween-80) was 272 % of control. For the same compound, the T/C [2] was 177 % of control.

In the case of c1ccc(CCN2COc3c(ccc4cccnc34)C2)cc1, the T/C [2] is reported as 95 % of control.

For O=C(CCCCC(=O)Nc1ccc(C(=O)Nc2cc(C3=NCCN3)cc(C3=NCCN3)c2)cc1)Nc1ccc(C(=O)Nc2cc(C3=NCCN3)cc(C3=NCCN3)c2)cc1, the T/C (dose: 66.0 mg/kg/injection, schedule: Q01DX009 (ip), vehicle: saline) was 150 % of control, the T/C (dose: 150.0 mg/kg/injection, schedule: Q01DX009 (ip), vehicle: saline) was 150 % of control and the T/C (dose: 150.0 mg/kg/injection, schedule: Q04DX003 (ip), vehicle: saline) was 154 % of control. For the same compound, the T/C [3] was 150 % of control.

With CCOc1ccn(CC(=O)N2CCOCC2)c(=O)n1 the T/C (dose: 100.0 mg/kg/injection, schedule: Q01DX009 (ip), vehicle: water) was 103 % of control, the T/C (dose: 200.0 mg/kg/injection, schedule: Q01DX009 (ip), vehicle: water) was 105 % of control and the T/C (dose: 400.0 mg/kg/injection, schedule: Q01DX009 (ip), vehicle: water) was 97 % of control.

In the case of IC1CCCOC1[n+]1ccccc1 (stereo unspecified), the T/C (dose: 6.0 mg/kg/injection, schedule: Q01DX009 (ip), vehicle: saline with Tween-80) is reported as 104 % of control, the T/C (dose: 12.0 mg/kg/injection, schedule: Q01DX009 (ip), vehicle: saline with Tween-80) is reported as 109 % of control and the T/C (dose: 12.5 mg/kg/injection, schedule: Q04DX003 (ip), vehicle: saline with Tween-80) is reported as 96 % of control. For the same compound, the T/C [4] was 104 % of control and the T/C [1] was 107 % of control.

For C#CC(N)=O, the T/C (dose: 12.5 mg/kg/injection, schedule: Q04DX003 (ip), vehicle: Klucel (hydroxypropylcellulose) (HPC)) was 100 % of control and the T/C (dose: 25.0 mg/kg/injection, schedule: Q04DX003 (ip), vehicle: Klucel (hydroxypropylcellulose) (HPC)) was 90 % of control.

CCN(C)c1ccc(/C=C/c2ccnc3ccccc23)cc1 was tested, and the T/C (dose: 12.5 mg/kg/injection, schedule: Q01DX009 (ip), vehicle: saline with Tween-80) was 115 % of control, the T/C [4] was 91 % of control and the T/C [5] was 99 % of control.

With CC(C)(C)c1cccc(S(=O)(=O)Oc2ccccc2[N+](=O)[O-])c1 the T/C [6] was 100 % of control, the T/C [7] was 118 % of control and the T/C [8] was 95 % of control.

With Cc1nc2nccnc2[nH]1 the T/C [9] was 91 % of control, the T/C [10] was 91 % of control and the T/C (dose: 400.0 mg/kg/injection, schedule: Q01DX009 (ip), vehicle: saline with Tween-80) was 100 % of control.

In the case of CN(C)C1Cc2ccccc2C1OC(=O)c1ccccc1 (stereo unspecified), the T/C [11] is reported as 103 % of control and the T/C [12] is reported as 91 % of control.

In the case of CO[C@H](C)[C@](O)(C(=O)OCC1=CC[N+]2([O-])CC[C@H](O)[C@@H]12)C(C)C (stereo partly specified), the T/C (dose: 40.0 mg/kg/injection, schedule: Q01DX010 (ip), vehicle: saline) is reported as 100 % of control, the T/C (dose: 80.0 mg/kg/injection, schedule: Q01DX010 (ip), vehicle: saline) is reported as 105 % of control and the T/C (dose: 160.0 mg/kg/injection, schedule: Q01DX010 (ip), vehicle: saline) is reported as 116 % of control. For the same compound, the T/C (dose: 200.0 mg/kg/injection, schedule: Q01DX007 (ip), vehicle: water) was 117 % of control, the T/C (dose: 400.0 mg/kg/injection, schedule: Q01DX007 (ip), vehicle: water) was 119 % of control and the T/C (dose: 800.0 mg/kg/injection, schedule: Q01DX007 (ip), vehicle: water) was 119 % of control. For the same compound, the T/C (dose: 1600.0 mg/kg/injection, schedule: Q01DX007 (ip), vehicle: water) was 94 % of control.

In the case of C=C(CCCCC)C(=O)/C=C/c1ccc(Cl)cc1, the T/C (dose: 100.0 mg/kg/injection, schedule: Q01DX001 (ip), vehicle: Klucel (hydroxypropylcellulose) (HPC)) is reported as 109 % of control, the T/C (dose: 200.0 mg/kg/injection, schedule: Q01DX001 (ip), vehicle: Klucel (hydroxypropylcellulose) (HPC)) is reported as 109 % of control and the T/C (dose: 400.0 mg/kg/injection, schedule: Q01DX001 (ip), vehicle: Klucel (hydroxypropylcellulose) (HPC)) is reported as 118 % of control.

With O=C(Nc1cccc(Cl)c1)N1c2ccccc2SC1c1ccco1 (stereo unspecified) the T/C [5] was 91 % of control, the T/C [9] was 107 % of control and the T/C [10] was 109 % of control.

In the case of COc1ccc(C2=C/C(=C3/C(=O)C=C(C)OC3=O)SS2)cc1, the T/C [5] is reported as 90 % of control, the T/C [9] is reported as 92 % of control and the T/C [10] is reported as 97 % of control.

c1ccc2c(c1)-c1cccc3cccc-2c13 was tested, and the T/C [5] was 98 % of control, the T/C [9] was 102 % of control and the T/C [10] was 100 % of control.

In the case of COC(=O)C1CCN1C(C)(C)C (stereo unspecified), the T/C [13] is reported as 100 % of control, the T/C [3] is reported as 90 % of control and the T/C (dose: 400.0 mg/kg/injection, schedule: Q04DX003 (ip), vehicle: saline) is reported as 90 % of control.

CC(C(=O)O)[Se](=O)O (stereo unspecified) was tested, and the T/C (dose: 12.5 mg/kg/injection, schedule: Q04DX003 (ip), vehicle: saline) was 101 % of control, the T/C (dose: 25.0 mg/kg/injection, schedule: Q04DX003 (ip), vehicle: saline) was 101 % of control and the T/C [14] was 100 % of control.

For CCOC(=O)C1CSC2(CCCCC2)N1 (stereo unspecified), the T/C [11] was 92 % of control, the T/C [15] was 94 % of control and the T/C [12] was 109 % of control.

With C(=C\c1nc2ccccc2[nH]1)/c1nc2ccccc2[nH]1 the T/C [4] was 100 % of control, the T/C [5] was 100 % of control and the T/C [9] was 92 % of control. For the same compound, the T/C [10] was 98 % of control.

For O=C(Nc1cccc(C2=NCCCN2)c1)Nc1ccc(NC(=O)Nc2cccc(C3=NCCCN3)c2)c(Cl)c1, the T/C (dose: 10.0 mg/kg/injection, schedule: Q01DX009 (ip), vehicle: saline with Tween-80) was 227 % of control, the T/C (dose: 11.0 mg/kg/injection, schedule: Q04DX003 (ip), vehicle: saline with Tween-80) was 182 % of control and the T/C (dose: 17.0 mg/kg/injection, schedule: Q04DX003 (ip), vehicle: saline with Tween-80) was 217 % of control. The T/C (dose: 20.0 mg/kg/injection, schedule: Q01DX009 (ip), vehicle: saline with Tween-80) was 204 % of control, the T/C (dose: 26.0 mg/kg/injection, schedule: Q04DX003 (ip), vehicle: saline with Tween-80) was 195 % of control and 209 % of control and the T/C (dose: 40.0 mg/kg/injection, schedule: Q04DX003 (ip), vehicle: saline with Tween-80) was 272 % of control. The T/C (dose: 60.0 mg/kg/injection, schedule: Q04DX003 (ip), vehicle: saline with Tween-80) was 272 % of control.

O=C(O)/C(Cl)=C(Cl)\C=N\Nc1ccccc1 was tested, and the T/C (dose: 200.0 mg/kg/injection, schedule: Q04DX002 (ip), vehicle: saline with Tween-80) was 98 % of control.

With O=C(Nc1ccc(S(=O)(=O)O)cc1)c1ccc([N+](=O)[O-])cc1 the T/C (dose: 25.0 mg/kg/injection, schedule: Q01DX009 (ip), vehicle: saline) was 100 % of control, the T/C [11] was 100 % of control and the T/C [15] was 100 % of control. For the same compound, the T/C [13] was 100 % of control, the T/C (dose: 176.0 mg/kg/injection, schedule: Q04DX003 (ip), vehicle: saline with Tween-80) was 100 % of control and the T/C [3] was 100 % of control. The T/C (dose: 264.0 mg/kg/injection, schedule: Q04DX003 (ip), vehicle: saline with Tween-80) was 110 % of control, the T/C (dose: 264.0 mg/kg/injection, schedule: Q04DX003 (ip), vehicle: saline) was 95 % of control and 120 % of control and the T/C (dose: 400.0 mg/kg/injection, schedule: Q04DX003 (ip), vehicle: saline with Tween-80) was 100 % of control.

For S=c1nc[nH]c2ccccc12, the T/C (dose: 100.0 mg/kg/injection, schedule: Q04DX003 (ip), vehicle: Klucel (hydroxypropylcellulose) (HPC)) was 109 % of control, the T/C (dose: 200.0 mg/kg/injection, schedule: Q04DX003 (ip), vehicle: Klucel (hydroxypropylcellulose) (HPC)) was 122 % of control and the T/C (dose: 400.0 mg/kg/injection, schedule: Q04DX003 (ip), vehicle: Klucel (hydroxypropylcellulose) (HPC)) was 109 % of control.

In the case of CCCCCCCCCCCCCSCCCCCCCCCCCCSCCCCCCCCCCCC, the T/C [6] is reported as 86 % of control, the T/C [7] is reported as 86 % of control and the T/C [8] is reported as 90 % of control.

With CCCCN=CC(C)(C)NCCCC the T/C [11] was 91 % of control and 99 % of control, the T/C [14] was 103 % of control and the T/C [15] was 98 % of control and 107 % of control. The T/C [13] was 103 % of control and the T/C [3] was 100 % of control.

In the case of CSC1=NN(c2ccccc2)CN(c2ccccc2)N1C, the T/C [5] is reported as 95 % of control, the T/C [9] is reported as 88 % of control and the T/C [10] is reported as 108 % of control.
